ChEMBL document CHEMBL5291721, “A preclinical secondary pharmacology resource illuminates target-adverse drug reaction associations of marketed drugs” (Nat Commun, 2023)

What was measured:
[1] = molecular target: 5-hydroxytryptamine receptor 2A (Homo sapiens, UniProt P28223); format: functional, cell-based
Thromboxane A2 receptor = molecular target: T1, Thromboxane A2 receptor (Homo sapiens, UniProt P21731)
T1 sequence (P21731 whole entry): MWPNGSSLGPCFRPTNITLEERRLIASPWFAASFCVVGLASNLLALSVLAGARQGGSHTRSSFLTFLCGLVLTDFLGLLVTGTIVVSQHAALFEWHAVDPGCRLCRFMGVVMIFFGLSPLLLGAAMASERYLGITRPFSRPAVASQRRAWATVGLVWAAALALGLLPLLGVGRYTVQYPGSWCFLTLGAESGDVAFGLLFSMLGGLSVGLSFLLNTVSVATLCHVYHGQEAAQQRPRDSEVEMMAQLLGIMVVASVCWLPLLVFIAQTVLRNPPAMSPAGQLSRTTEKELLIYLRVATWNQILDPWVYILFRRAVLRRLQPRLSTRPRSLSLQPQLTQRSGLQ

Adenosine receptor A3 = molecular target: T2, Adenosine receptor A3 (Homo sapiens, UniProt P0DMS8)
T2 sequence (P0DMS8 whole entry): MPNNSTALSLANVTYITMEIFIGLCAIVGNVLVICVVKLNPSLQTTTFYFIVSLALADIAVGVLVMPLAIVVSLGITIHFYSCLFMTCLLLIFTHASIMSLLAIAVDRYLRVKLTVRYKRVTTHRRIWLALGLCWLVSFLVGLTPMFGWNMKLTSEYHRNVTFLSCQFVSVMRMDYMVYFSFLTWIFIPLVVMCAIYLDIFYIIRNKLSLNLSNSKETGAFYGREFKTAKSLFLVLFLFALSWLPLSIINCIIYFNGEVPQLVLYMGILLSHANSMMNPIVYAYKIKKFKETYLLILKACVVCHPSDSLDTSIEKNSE

[2] = molecular target: Beta-2 adrenergic receptor (Homo sapiens, UniProt P07550)
[3] = molecular target: T3, Alpha-2B adrenergic receptor (Homo sapiens, UniProt P18089)
T3 sequence (P18089 whole entry): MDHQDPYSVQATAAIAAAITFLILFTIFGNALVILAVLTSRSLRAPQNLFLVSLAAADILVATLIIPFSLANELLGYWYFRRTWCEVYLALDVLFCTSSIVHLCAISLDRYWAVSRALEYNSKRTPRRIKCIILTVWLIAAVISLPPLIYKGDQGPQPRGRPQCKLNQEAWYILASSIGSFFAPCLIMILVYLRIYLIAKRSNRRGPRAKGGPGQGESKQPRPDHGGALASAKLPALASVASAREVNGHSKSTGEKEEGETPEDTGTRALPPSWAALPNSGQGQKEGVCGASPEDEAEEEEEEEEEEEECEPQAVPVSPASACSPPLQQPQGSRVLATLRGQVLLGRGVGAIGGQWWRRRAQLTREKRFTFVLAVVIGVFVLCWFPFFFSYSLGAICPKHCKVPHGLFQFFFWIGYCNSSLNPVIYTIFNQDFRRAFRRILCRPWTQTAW

[4] = molecular target: Growth hormone secretagogue receptor type 1 (Homo sapiens, UniProt Q92847)
[5] = molecular target: T4, 5-hydroxytryptamine receptor 1A (Homo sapiens, UniProt P08908); format: functional, cell-based
T4 sequence (P08908 whole entry): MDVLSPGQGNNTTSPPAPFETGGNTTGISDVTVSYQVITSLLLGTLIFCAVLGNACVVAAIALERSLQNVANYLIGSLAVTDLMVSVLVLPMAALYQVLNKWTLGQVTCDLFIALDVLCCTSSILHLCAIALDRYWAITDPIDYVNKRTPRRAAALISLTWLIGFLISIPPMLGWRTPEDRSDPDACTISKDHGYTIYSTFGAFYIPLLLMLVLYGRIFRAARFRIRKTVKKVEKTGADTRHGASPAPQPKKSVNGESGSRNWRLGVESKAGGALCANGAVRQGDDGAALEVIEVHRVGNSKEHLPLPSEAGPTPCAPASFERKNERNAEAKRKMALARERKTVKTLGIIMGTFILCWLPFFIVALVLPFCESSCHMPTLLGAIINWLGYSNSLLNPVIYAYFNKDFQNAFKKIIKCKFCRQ

Melanocortin receptor 3 = Melanocortin receptor 3 (Homo sapiens, UniProt P41968)
Vasopressin V2 receptor = Vasopressin V2 receptor (Homo sapiens, UniProt P30518)
Progesterone receptor = molecular target: T5, Progesterone receptor (Homo sapiens, UniProt P06401); format: functional
T5 sequence (P06401 whole entry): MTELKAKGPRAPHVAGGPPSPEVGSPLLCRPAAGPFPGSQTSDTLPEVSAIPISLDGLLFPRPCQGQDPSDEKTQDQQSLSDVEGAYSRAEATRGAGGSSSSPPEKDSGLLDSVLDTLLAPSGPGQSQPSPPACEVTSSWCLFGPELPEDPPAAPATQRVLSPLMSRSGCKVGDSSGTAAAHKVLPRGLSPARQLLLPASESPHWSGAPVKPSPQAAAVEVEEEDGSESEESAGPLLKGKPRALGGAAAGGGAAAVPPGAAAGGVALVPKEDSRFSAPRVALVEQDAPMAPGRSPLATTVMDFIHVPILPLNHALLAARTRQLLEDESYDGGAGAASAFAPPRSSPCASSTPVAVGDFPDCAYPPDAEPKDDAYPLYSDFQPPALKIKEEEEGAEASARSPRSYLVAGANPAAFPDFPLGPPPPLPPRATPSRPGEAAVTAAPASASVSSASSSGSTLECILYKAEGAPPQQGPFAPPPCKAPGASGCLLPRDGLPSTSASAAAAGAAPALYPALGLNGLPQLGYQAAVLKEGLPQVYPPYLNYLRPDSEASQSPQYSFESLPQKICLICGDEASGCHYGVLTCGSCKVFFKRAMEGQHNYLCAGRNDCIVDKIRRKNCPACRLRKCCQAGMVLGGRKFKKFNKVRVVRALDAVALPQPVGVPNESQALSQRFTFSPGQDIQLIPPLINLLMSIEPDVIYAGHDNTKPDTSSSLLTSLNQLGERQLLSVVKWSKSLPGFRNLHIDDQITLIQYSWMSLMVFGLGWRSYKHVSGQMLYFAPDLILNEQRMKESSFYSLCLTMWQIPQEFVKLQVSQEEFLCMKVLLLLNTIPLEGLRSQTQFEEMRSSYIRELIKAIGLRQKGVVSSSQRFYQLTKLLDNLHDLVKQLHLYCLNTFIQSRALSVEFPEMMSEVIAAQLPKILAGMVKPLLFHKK

Measured: AC50
Further: assay procedure not described here.

Chain of Beta-2 adrenergic receptor (P07550 whole entry): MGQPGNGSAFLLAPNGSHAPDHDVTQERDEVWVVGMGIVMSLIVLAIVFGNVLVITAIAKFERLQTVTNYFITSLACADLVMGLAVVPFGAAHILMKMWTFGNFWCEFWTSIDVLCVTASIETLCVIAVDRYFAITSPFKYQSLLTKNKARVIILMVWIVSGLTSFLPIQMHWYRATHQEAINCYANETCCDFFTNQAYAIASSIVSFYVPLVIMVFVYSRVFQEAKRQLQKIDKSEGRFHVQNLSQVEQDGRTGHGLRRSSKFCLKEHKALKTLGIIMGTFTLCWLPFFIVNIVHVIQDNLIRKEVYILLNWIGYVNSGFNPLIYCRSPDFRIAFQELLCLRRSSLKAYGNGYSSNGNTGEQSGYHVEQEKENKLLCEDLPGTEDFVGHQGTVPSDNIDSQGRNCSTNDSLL
Chain of Growth hormone secretagogue receptor type 1 (Q92847 whole entry): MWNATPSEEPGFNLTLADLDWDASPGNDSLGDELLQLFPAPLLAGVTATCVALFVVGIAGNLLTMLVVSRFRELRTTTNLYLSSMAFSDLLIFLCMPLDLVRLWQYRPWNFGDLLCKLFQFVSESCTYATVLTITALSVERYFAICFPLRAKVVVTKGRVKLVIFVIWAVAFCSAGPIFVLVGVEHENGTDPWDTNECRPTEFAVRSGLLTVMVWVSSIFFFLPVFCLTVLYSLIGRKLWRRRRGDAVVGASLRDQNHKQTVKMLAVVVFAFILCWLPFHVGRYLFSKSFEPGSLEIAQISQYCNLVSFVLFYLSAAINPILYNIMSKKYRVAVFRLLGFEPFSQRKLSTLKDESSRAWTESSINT
Chain of Vasopressin V2 receptor (P30518 whole entry): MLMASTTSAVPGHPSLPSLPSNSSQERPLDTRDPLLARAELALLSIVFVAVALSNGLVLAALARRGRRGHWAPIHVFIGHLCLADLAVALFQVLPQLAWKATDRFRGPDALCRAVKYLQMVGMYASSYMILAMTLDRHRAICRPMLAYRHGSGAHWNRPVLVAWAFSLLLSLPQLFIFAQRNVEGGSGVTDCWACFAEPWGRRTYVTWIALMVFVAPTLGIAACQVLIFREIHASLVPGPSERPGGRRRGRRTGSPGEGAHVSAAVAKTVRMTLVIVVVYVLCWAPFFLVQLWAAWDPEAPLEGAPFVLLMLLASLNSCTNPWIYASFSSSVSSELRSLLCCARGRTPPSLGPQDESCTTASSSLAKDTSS
Chain of 5-hydroxytryptamine receptor 2A (P28223 whole entry): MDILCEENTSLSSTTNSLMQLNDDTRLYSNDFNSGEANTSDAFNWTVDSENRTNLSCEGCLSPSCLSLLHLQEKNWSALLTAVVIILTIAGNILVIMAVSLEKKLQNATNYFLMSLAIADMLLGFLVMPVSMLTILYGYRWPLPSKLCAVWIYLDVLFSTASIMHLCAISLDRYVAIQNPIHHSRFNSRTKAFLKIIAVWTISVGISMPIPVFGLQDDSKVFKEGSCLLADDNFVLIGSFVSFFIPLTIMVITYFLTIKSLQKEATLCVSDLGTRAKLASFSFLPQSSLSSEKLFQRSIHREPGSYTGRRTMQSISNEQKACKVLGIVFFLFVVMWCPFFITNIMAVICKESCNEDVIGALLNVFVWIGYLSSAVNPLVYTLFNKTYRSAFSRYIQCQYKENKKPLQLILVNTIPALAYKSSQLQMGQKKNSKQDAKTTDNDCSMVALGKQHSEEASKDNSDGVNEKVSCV
Chain of Melanocortin receptor 3 (P41968 whole entry): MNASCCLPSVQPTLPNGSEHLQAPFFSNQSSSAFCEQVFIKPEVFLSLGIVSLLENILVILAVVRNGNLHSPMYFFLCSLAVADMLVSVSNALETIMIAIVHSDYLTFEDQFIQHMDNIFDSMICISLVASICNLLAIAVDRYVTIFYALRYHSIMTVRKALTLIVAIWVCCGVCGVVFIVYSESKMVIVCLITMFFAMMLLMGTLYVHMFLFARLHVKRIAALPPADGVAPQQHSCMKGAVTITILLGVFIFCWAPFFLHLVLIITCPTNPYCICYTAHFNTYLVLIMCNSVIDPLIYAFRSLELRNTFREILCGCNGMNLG

O=C(CCCCC(=O)Nc1c(I)cc(I)c(C(=O)O)c1I)Nc1c(I)cc(I)c(C(=O)O)c1I [IODIPAMIDE]
> 10 µM: all assays above

CC(C)[N+](C)(CCC(C(N)=O)(c1ccccc1)c1ccccc1)C(C)C [ISOPROPAMIDE]
> 10 µM: all assays above
